Series [1] in a line: Peptide stability in human serum (MALDI-TOF). In kind it is in vitro ADME. The following applies: for remaining at 24 h, 100 µM: after 24h of incubation at 37°C in human serum, 100 µM (Figure 6), read-out: peptide still present. The method, then:
The peptides were incubated at 37°C in 250 µL of human serum (Gibco) for different periods of time. Samples were collected and peptide degradation stopped by freezing at -20°C. The peptide was extracted from samples using the Proteo Miner Protein Enrichment System (Bio-Rad). The percentage of intact peptide was estimated by MS using MALDI-TOFF using the protocol previously described (Bruker Autoflex II) according to the manufacturer's instructions. Measurements were performed in triplicate. MS data were analysed using the software Cliprot tools, Flex analysis, Bruker.

Series [2] concerns the target T1, Leucine-rich repeat kinase 2 (LRRK2), human (human, UniProt Q5S007 1-2527).
T1 construct: Protein as present in MDA-MB231 lysates; also called dardarin
The series is described as follows: PP1 dodecapeptide array on cellulose membrane.

Non-standard residues stand in square brackets, D forms with d. Residues, ends and D or L forms follow the SMILES beside them. No end group written: not given here. Ahx = NCCCCCC(=O)O

T1 sequence (Q5S007 whole entry R50H/L212S): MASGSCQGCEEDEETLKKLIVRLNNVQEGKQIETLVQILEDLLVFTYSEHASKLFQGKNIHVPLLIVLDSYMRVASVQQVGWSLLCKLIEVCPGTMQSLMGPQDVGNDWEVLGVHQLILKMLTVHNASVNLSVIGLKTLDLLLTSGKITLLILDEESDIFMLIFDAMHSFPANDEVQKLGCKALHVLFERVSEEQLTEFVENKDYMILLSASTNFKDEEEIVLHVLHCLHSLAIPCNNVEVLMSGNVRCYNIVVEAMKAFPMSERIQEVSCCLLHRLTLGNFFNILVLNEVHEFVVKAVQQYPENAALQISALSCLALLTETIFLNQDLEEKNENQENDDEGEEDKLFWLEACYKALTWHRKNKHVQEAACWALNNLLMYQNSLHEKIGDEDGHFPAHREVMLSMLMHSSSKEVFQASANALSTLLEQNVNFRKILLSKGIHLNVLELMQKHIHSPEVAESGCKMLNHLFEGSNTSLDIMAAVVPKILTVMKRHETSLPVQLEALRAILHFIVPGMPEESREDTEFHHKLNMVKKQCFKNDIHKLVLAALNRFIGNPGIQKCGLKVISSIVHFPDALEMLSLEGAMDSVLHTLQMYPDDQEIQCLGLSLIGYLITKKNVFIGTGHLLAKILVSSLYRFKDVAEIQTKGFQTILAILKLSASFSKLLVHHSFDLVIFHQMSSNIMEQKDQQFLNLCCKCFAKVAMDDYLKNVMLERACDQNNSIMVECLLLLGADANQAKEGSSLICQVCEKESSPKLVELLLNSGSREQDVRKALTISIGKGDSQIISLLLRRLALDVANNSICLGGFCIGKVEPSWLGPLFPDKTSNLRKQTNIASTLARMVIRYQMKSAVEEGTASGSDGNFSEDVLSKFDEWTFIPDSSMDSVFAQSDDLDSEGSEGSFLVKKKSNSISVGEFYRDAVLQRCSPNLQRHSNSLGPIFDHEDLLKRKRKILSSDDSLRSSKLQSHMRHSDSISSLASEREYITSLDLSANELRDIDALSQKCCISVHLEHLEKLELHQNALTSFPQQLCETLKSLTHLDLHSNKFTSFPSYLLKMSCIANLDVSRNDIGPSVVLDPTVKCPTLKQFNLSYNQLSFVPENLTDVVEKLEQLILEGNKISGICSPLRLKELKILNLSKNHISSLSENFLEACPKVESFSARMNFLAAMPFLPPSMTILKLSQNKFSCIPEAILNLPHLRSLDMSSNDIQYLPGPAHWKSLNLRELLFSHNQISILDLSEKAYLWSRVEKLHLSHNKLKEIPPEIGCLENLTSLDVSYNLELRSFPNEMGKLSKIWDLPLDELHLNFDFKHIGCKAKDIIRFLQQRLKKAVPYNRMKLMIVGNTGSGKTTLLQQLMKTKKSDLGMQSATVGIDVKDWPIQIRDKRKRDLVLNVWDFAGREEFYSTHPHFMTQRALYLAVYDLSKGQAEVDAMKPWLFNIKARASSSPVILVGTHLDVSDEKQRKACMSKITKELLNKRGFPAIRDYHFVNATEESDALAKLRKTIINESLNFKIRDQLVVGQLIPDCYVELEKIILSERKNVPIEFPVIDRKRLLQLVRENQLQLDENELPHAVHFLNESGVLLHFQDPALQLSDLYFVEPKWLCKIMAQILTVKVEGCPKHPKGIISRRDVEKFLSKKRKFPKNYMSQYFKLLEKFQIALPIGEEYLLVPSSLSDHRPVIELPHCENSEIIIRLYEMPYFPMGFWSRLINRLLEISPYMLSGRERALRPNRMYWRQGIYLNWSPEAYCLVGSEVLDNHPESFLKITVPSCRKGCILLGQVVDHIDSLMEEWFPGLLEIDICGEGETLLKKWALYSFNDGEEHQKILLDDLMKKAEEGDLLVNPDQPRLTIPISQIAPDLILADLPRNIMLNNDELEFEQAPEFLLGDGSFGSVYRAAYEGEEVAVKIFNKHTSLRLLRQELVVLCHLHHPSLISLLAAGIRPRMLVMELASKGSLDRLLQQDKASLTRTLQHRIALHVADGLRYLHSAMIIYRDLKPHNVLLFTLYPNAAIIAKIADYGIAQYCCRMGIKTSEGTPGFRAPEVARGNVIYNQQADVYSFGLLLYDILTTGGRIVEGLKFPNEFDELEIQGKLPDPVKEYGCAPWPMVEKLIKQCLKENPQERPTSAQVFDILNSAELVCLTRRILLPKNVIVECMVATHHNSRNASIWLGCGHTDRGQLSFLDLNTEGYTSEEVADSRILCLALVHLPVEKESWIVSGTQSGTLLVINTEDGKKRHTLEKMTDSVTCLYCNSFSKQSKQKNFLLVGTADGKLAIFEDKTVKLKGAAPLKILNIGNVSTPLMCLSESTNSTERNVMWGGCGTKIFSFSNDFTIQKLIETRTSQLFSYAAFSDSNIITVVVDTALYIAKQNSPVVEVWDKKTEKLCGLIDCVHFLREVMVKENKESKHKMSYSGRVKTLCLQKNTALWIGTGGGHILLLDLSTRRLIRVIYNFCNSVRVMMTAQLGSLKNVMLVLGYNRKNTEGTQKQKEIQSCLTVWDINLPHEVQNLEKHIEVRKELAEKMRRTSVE

In the case of `CC[C@H](C)[C@H](NC(=O)[C@H](CCC(=O)O)NC(=O)[C@H](CC(C)C)NC(=O)[C@H](CC(C)C)NC(=O)[C@H](CCCNC(=N)N)NC(=O)[C@H](CC(N)=O)NC(=O)[C@@H](NC(=O)[C@H](CC(C)C)NC(=O)[C@H](CCCNC(=N)N)NC(=O)[C@H](CO)NC(=O)[C@H](Cc1c[nH]c2ccccc12)NC(=O)[C@H](Cc1ccccc1)NC(=O)CN)[C@@H](C)CC)C(=O)NCCCCCC(=O)N[C@@H](CO)C(=O)N[C@@H](CCCNC(=N)N)C(=O)N[C@@H](CCCNC(=N)N)C(=O)N[C@H](C(=O)N[C@H](C(=O)N[C@@H](CO)C(=O)N[C@@H](CCCNC(=N)N)C(=O)N[C@@H](C)C(=O)N[C@@H](CCCCN)C(=O)N[C@@H](CC(C)C)C(=O)N[C@@H](C)C(=O)N[C@@H](C)C(=O)N[C@@H](C)C(=O)N[C@@H](CC(C)C)C(=O)O)[C@@H](C)CC)C(C)C` [Peptide 1, GFWSRLINRLLEI- AHx -SRRVISRAKLAAAL] (H-GFWSRLINRLLEI[Ahx]SRRVISRAKLAAAL-OH), in series [1], the remaining at 24 h, 100 µM is over 90%. The “stability in serum (resistance to proteases)” value in series [1] (human serum, 37°C, result in words) is recorded as “particularly high”.

Regarding “GFWSRLINRLLEIGGSSRRVISRAKLAAAL [Peptide 2, GFWSRLINRLLEI- GGS -SRRVISRAKLAAAL]”, in series [1], the remaining at 24 h, 100 µM is over 90%.

B1: Peptide 20 (AEVVAKFLHKHDLDLICRAH), fragment of PP1 (peptide)
peptide: AEVVAKFLHKHDLDLICRAH
notes: Synthetic peptide, isolated fragment of PP1
For B1, the binding result in series [2] is given as “binds”.

B2: Peptide 19 (VQGSRPGKNVQLTENE), fragment of PP1 (peptide)
peptide: VQGSRPGKNVQLTENE
notes: as for B1
Regarding B2, in series [2], the binding result is “binds”.

B3: Peptide 21 (NPGGRPITPPRNSAKAKK), fragment of PP1 (peptide)
peptide: NPGGRPITPPRNSAKAKK
notes: as for B1
For the molecule B3, in series [2], the binding result is reported as “binds”.

These data come from patent EP4563586A1, “NEW INHIBITORS OF LRRK2/PP1 INTERACTION” (Université Paris Cité, priority 2023, dated 2025).
